# Test results as given in patent US20160279079A1, “COMPOSITIONS AND METHODS FOR TREATING BONE DISEASES” (INDIANA UNIVERSITY RESEARCH AND TECHNOLOGY CORPORATION, priority 2013, published 2016).
# Read-outs that look alike come from different tables or passages of the source.
# Key:
# [1] = test system: RAW264.7 mouse pre-osteoclast (monocyte/macrophage) cells; assay: Cell mortality and live cell numbers (trypan blue, hemacytometer); format: cell-based
# Method: METHOD EXAMPLE. Cell culture. MC3T3 E1 mouse osteoblast-like cells (clone 14—MC3T3 E1-14; and no clonal cells in supplementary figures), and RAW264.7 mouse pre-osteoclast (monocyte/macrophage) cells were cultured in αMEM containing 10% fetal bovine serum and antibiotics (50 units/ml penicillin, and 50 μg/ml streptomycin; Life Technologies, Grand Island, N.Y., USA). Cells were maintained at 37° C. and 5% CO2 in a humidified incubator. Cell mortality and live cell numbers were determined 24 h after the treatment with 20 ng/ml RANKL (PeproTech, Rocky Hills, N.C., USA) in response to 0.1-20 μM salubrinal or 1-20 μM guanabenz acetate (Tocris Bioscience, Ellisville, Mo., USA). Cells were stained with trypan blue and the numbers of live and dead cells were counted using a hemacytometer.
# METHOD EXAMPLE. Inhibition of osteoclastogenesis of RAW264.7 cells by salubrinal. The primary aim of this study is to evaluate the effects of salubrinal on osteoclastogenesis. In response to 0.1-20 μM salubrinal for 24 h, cell mortality and live cell numbers of RAW264.7 pre-osteoclasts was examined. […] The number of live cells was increased by ˜50% by incubation with RANKL, and administration of 10-20 μM salubrinal reduced the numbers approximately by 10% (FIG. 3B).
# METHOD EXAMPLE. Inhibitory effects of guanabenz on osteoclastogenesis of RAW264.7 cells. To further examine a potential involvement of p-eIF2α in regulation of osteoclastogenesis, we employed guanabenz that also acts as an inhibitor of de-phosphorylation of eIF2α was evaluated. […] Compared to the number of TRAP-positive multi-nucleated cells of 377 39 (RANKL only), guanabenz reduced the number of differentiated osteoclasts to 364±38 (1 μM), 288±51 (5 μM), 189±25 (10 μM), and 73±16 (20 μM).
# c-Fos = assay: Quantitative real-time PCR, c-Fos mRNA in RAW264.7 cells; format: cell-based, mouse
# Method: (§1) METHOD EXAMPLE. Quantitative real-time PCR. Total RNA was extracted using an RNeasy Plus mini kit (Qiagen, Germantown, Md., USA). Reverse transcription was conducted with high capacity cDNA reverse transcription kits (Applied Biosystems, Carlsbad, Calif., USA), and quantitative real-time PCR was performed using ABI 7500 with Power SYBR green PCR master mix kits (Applied Biosystems). We evaluated mRNA levels of ATF4, Osteocalcin (OCN), NFATcl, c-Fos, tartrate-resistant acid phosphatase (TRAP), and osteoclast-associated receptor (OSCAR) with the PCR primers listed in Table 1. GAPDH was used for internal control. The relative mRNA abundance for the selected genes with respect to the level of GAPDH mRNA was expressed as a ratio of Streated/Scontrol, where Streated=mRNA level for the cells treated with chemical agents, and Scontrol=mRNA level for control cells.
# (§2) METHOD EXAMPLE. Partial suppression of mRNA levels of NFATcl, c-Fos, TRAP, and OSCAR by salubrinal. […] On day 2, for instance, the RANKL-driven increase was 9.4±0.5 fold (NFATcl), 1.9±0.1 fold (c-fos), 165±4.2 fold (TRAP), and 467±22 fold (OSCAR). The reduction by 20 μM salubrinal was 46% (NFATcl), 32% (c-fos), 35% (TRAP), and 21% (OSCAR) (FIG. 5A).
# (§3) METHOD EXAMPLE. Reduction of RANKL-induced NFATcl, c-Fos, TRAP, and OSCAR by guanabenz. […] The normalized level of “1” was defined as the level for the cells that were not treated with RANKL without administration of guanabenz.
# [2] = test system: tartrate-resistant acid phosphatase (TRAP); assay: Quantitative real-time PCR, TRAP mRNA in RAW264.7 cells; format: cell-based, mouse; settings: for expression of TRAP: absence of RANKL administration
# Method: as §1, §2, §3
# [3] = test system: osteoclast-associated receptor (OSCAR); assay: Quantitative real-time PCR, OSCAR mRNA in RAW264.7 cells; format: cell-based, mouse
# Method: as §1, §2, §3
# p-eIF2α = assay: Western immunoblotting, p-eIF2α in MC3T3 E1-14 cells; format: cell-based, mouse
# Method: METHOD EXAMPLE. Western Immunoblotting. Cells were lysed in a radioimmunoprecipitation assay (RIPA) buffer containing protease inhibitors (Santa Cruz Biotechnology, Santa Cruz, Calif., USA) and phosphatase inhibitors (Calbiochem, Billerica, Mass., USA). Isolated proteins were fractionated using 10-15% SDS gels and electro-transferred to Immobilon-P membranes (Millipore, Billerica, Mass., USA). The membrane was incubated for 1 h with primary antibodies followed by 45 min incubation with goat anti-rabbit or anti-mouse IgG conjugated with horseradish peroxidase (Cell Signaling, Danvers, Mass., USA). We used antibodies against ATF4, NFATcl (Santa Cruz), p-eIF2α (Thermo Scientific, Waltham, Mass., USA), eIF2α, caspase 3, cleaved caspase 3, p38 and p-p38 mitogen activated protein kinase (MAPK), extracellular signal-regulated kinase (ERK) and p-ERK, nuclear factor kappa B (NFκB) p65 and p-NFκB p65 (Cell Signaling), and β-actin (Sigma). Protein levels were assayed using a SuperSignal west femto maximum sensitivity substrate (Thermo Scientific), and signal intensities were quantified with a luminescent image analyzer (LAS-3000, Fuji Film, Tokyo, Japan).
# METHOD EXAMPLE. ATF4-mediated elevation of osteocalcin mRNA in MC3T3 E1-14 cells. Salubrinal is an inhibitor of de-phosphorylation of eIF2α. […]
# Osteocalcin (OCN) = assay: Quantitative real-time PCR, osteocalcin mRNA in MC3T3 E1-14 cells; format: cell-based, mouse; settings: for increase of the level of osteocalcin mRNA: 5 μM salubrinal
# Method: as §1
# METHOD EXAMPLE. Knockdown of ATF4 and eIF2α by siRNA. Cells were treated with siRNA specific to ATF4 and eIF2α (Life Technologies). Selected target sequences for knockdown of ATF4 and eIF2α were: ATF4, 5′-GCU GCU UAC AUU ACU CUA A-3′; and eIF2α, 5′-CGG UCA AAA UUC GAG CAG A-3′. As a nonspecific control, a negative siRNA (Silencer Select #1, Life Technologies) was used. Cells were transiently transfected with siRNA for ATF4, eIF2α or control in Opti-MEM I medium with Lipofectamine RNAiMAX (Life Technologies). Six hours later, the medium was replaced by regular culture medium. The efficiency of silencing was assessed with immunoblotting or quantitative PCR 48 h after transfection.
# METHOD EXAMPLE. ATF4-mediated elevation of osteocalcin mRNA in MC3T3 E1-14 cells. Salubrinal is an inhibitor of de-phosphorylation of eIF2α. […] Furthermore, the level of osteocalcin mRNA was increased 3.3±0.5 fold (24 h) and 3.3±0.3 fold (32 h) (FIG. 2B). […] Non-clonal MC3T3 E1 cells also presented elevation of p-eIF2α and ATF4, together with an increase in the mRNA levels of ATF4 and osteocalcin (Supplementary FIG. S2).
# [4] = 20 μM guanabenz, 2 days after RANKL
# [5] = 5 and 10 μM guanabenz, 2 days after RANKL
# [6] = 20 μM salubrinal, day 2 after RANKL
# [7] = 0.1-1 μM salubrinal, with RANKL, day 2 and day 4
structure (smiles),measurement,setting,value
N=C(N)N/N=C/c1c(Cl)cccc1Cl [guanabenz],cell mortality,[1],did not significantly alter
same,c-Fos mRNA level,c-Fos; [4],reduced
same,TRAP mRNA level,[2]; [4],reduced
same,TRAP mRNA level,[2]; [5],effective in reducing
same,expression of TRAP,[2],did not significantly alter
same,OSCAR mRNA level,[3]; [4],reduced
same,OSCAR mRNA level,[3]; [5],effective in reducing
same,p-eIF2α,p-eIF2α; guanabenz,increase in p-eIF2α and ATF4
same,mRNA level of osteocalcin,Osteocalcin (OCN); guanabenz dose response,elevated the mRNA level of osteocalcin in a dose dependent manner
O=C(/C=C/c1ccccc1)NC(NC(=S)Nc1cccc2cccnc12)C(Cl)(Cl)Cl (centres unmarked) [salubrinal],Cell mortality ratio,"[1]; 0.1-20 μM salubrinal, 24 h, presence and absence of RANKL",did not present statistically significant differences
same,reduction of the number of live cells,"[1]; 10-20 μM salubrinal, 24 h, with RANKL",~10%
same,cell mortality,[1]; absence of RANKL administration,did not significantly alter
same,reduction of c-fos mRNA level,c-Fos; [6],32%
same,c-fos mRNA level,"c-Fos; 0.1-1 μM salubrinal, with RANKL, except on day 4",did not contribute to significant reduction
same,reduction of TRAP mRNA level,[2]; [6],35%
same,TRAP mRNA level,[2]; [7],did not contribute to significant reduction
same,expression of TRAP,[2],did not significantly alter
same,reduction of OSCAR mRNA level,[3]; [6],21%
same,OSCAR mRNA level,[3]; [7],did not contribute to significant reduction
same,phosphorylation of eIF2α,p-eIF2α; 5 μM salubrinal,elevated phosphorylation of eIF2α
same,increase of the level of osteocalcin mRNA,Osteocalcin (OCN); 24 h,3.3±0.5 fold
same,increase of the level of osteocalcin mRNA,Osteocalcin (OCN); 32 h,3.3±0.3 fold
same,salubrinal-driven elevation of the osteocalcin mRNA level,Osteocalcin (OCN); ATF4 expression reduced by RNA interference,suppressed
